We go through 29 molecules from patent publication US20250122166A1, “SUBSTITUTED N-((2-(2,6-DIOXOPIPERIDIN-3-YL)-1-OXOISOINDOLIN-4-YL)METHYL)BENZAMIDE ANALOGS AS MODULATORS OF CEREBLON PROTEIN” (ST. JUDE CHILDREN'S RESEARCH HOSPITAL, INC., priority 2021, published 2025).

For assay [1], the system named is MOLM-13 cells. Description: Cell proliferation assay (Cell Titer-Glo, 72 h). The assay is classed as cell-based. Particulars: Homo sapiens, 72 h incubation, * = cytostatic 50%. As for the experimental part:
MOLM-13 cell line was purchased from the Leibniz Institute DSMZ (ACC 554). The cells were cultured according to recommendations in RPMI 1640 cell culture media with 20% FBS (DSMZ). Exponentially growing MOLM-13 cells were plated at 1250 cells per well in Corning 8804BC white 384-well assay plates and incubated overnight at 37° C. in a humidified 5% CO2 incubator. Compounds were transferred to the assay plate from a dose-response plate using a Pintool on a Biomek FXP Laboratory Automation Workstation (Beckman Coulter). Cytotoxicity was determined following 72 hours of incubation using Promega Cell Titer Glo reagent according to the manufacturer's recommendation. Luminescence was measured on an Envision plate reader (Perkin-Elmer).
Compounds were screened in human cancer cell lines and each cell line was cultured in the complete medium recommended by the vendor and seeded in Corning 8804BC white 384-well assay plates at density of 1250 cells per well for MOLM-13 cells. After overnight incubation at 37° C. in a humidified 5% CO2 incubator, cells were treated with compounds in dose-response format using a Pintool on a Biomek FXP Laboratory Automation Workstation (Beckman Coulter). After 72h incubation, cell proliferation was assessed using Cell Titer-Glo (CTG) luminescent cell viability assay (Promega) according to the manufacturer's instruction. Luminescence signal was measured using an Envision plate reader (Perkin-Elmer).

Assay [2] deals with 6XHis-CRBN-DDB1 protein (Homo sapiens (Human), UniProt Q96SW2). The assay can be described thus: CRBN fluorescence polarization assay (competitive, Cy5-O-Len probe). The note with it: 6XHis-CRBN-DDB1 200 nM, Cy5-O-Len probe 30 nM, 1 hour; mean of three determinations; read-out: CRBN FP (IC50). It counts as binding. As for the experimental part:
In this competitive fluorescent polarization assay Cy5 conjugated lenalidomide analog (Cy5—O-Len)^1 was used as a fluorescent probe. 6XHis-CRBN-DDB1 protein (200 nM) and Cy5—O-Len probe (30 nM) were combined in 20 mM HEPES pH 7, 150 mM NaCl, 0.005% Tween-20 assay buffer. 20 μL of this assay cocktail was dispensed into wells of Corning 3821 black 384-well plates. Compounds were transferred to the assay plate from a dose-response plate using a Pintool on a Biomek FXP Laboratory Automation Workstation (Beckman Coulter). The plates were incubated in the dark for 1 hour at room temperature and then read on an Envision plate reader (PerkinElmer, Massachusetts, USA). IC50 values were determined using a proprietary software RISE (Robust Investigation of Screening Experiments), developed in house on the Pipeline Pilot platform (Biovia, v. 17.2.0). Data represent the mean of three independent determinations.
A general note: Polarisation of emitted light reports the rotation of a fluorescent probe.

pEC50, pIC50: −log10 of the molar value. Bounds are passed on as bounds.

Broadly, the pEC50 is the EC50 on a negative log10 scale, so that one unit is a factor of ten. One may read the pIC50 as the negative decadic logarithm of the IC50, by convention in mol/L. `O=C1CCC(N2Cc3c(CNC(=O)c4ccc(F)cc4)cccc3C2=O)C(=O)N1` (stereo not shown) [Compound 7, N-((2-(2,6-dioxopiperidin-3-yl)-1-oxoisoindolin-4-yl)methyl)-4-fluorobenzamide] gave a pEC50 in assay [1] greater than 6.00. Besides, the pIC50 in assay [2] was 5.00 to 6.00.

Molecule `O=C1CCC(N2Cc3c(CNC(=O)c4ccc(Br)cc4)cccc3C2=O)C(=O)N1` (stereo not shown) [Compound 18, 4-bromo-N-((2-(2,6-dioxopiperidin-3-yl)-1-oxoisoindolin-4-yl)methyl)benzamide] had a pEC50 in assay [1] greater than 6.00.

Regarding `O=C1CCC(N2Cc3c(CNC(=O)c4ccc(-c5ccc(Cl)cc5)o4)cccc3C2=O)C(=O)N1` (stereo not shown) [Compound 44, 5-(4-chlorophenyl)-N-((2-(2,6-dioxopiperidin-3-yl)-1-oxoisoindolin-4-yl)methyl)furan-2-carboxamide], the pEC50 in assay [1] is greater than 6.00. The pIC50 in assay [2] was greater than 6.00.

Consider `COc1ccccc1C(=O)NCc1cccc2c1CN(C1CCC(=O)NC1=O)C2=O` (stereo not shown) [Compound 29, N-((2-(2,6-dioxopiperidin-3-yl)-1-oxoisoindolin-4-yl)methyl)-2-methoxybenzamide], for which the pEC50 in assay [1] is greater than 6.00. The pIC50 in assay [2] is 5.00 to 6.00.

On to `O=C1CCC(N2Cc3c(CNC(=O)c4ccc(C(F)(F)F)c(F)c4)cccc3C2=O)C(=O)N1` (stereo not shown) [Compound 16, N-((2-(2,6-dioxopiperidin-3-yl)-1-oxoisoindolin-4-yl)methyl)-3-fluoro-4-(trifluoromethyl)benzamide], for which, in assay [1], the negative logarithm of the EC50 (pEC50) was greater than 6.00. Also, the pIC50 in assay [2] is 5.00 to 6.00.

`O=C1CCC(N2Cc3c(CNC(=O)c4ccc(Cl)cc4Cl)cccc3C2=O)C(=O)N1` (stereo not shown) [Compound 28, 2,4-dichloro-N-((2-(2,6-dioxopiperidin-3-yl)-1-oxoisoindolin-4-yl)methyl)benzamide] had a pEC50 in assay [1] of less than 5.00.

`O=C1CCC(N2Cc3c(CNC(=O)c4c(F)ccc(F)c4Cl)cccc3C2=O)C(=O)N1` (stereo not shown) [Compound 33, 2-chloro-N-((2-(2,6-dioxopiperidin-3-yl)-1-oxoisoindolin-4-yl)methyl)-3,6-difluorobenzamide]: the pEC50 in assay [1] was less than 5.00. Also, the pIC50 in assay [2] is greater than 6.00.

For `O=C1CCC(N2Cc3c(CNC(=O)c4cccc(Cl)c4)cccc3C2=O)C(=O)N1` (stereo not shown) [Compound 3, 3-chloro-N-((2-(2,6-dioxopiperidin-3-yl)-1-oxoisoindolin-4-yl)methyl)benzamide], the pEC50 in assay [1] is greater than 6.00. In addition, the negative-log IC50 (pIC50) in assay [2] was greater than 6.00.

`O=C(Cc1ccccc1Br)NCc1cccc2c1CN(C1CCC(=O)NC1=O)C2=O` (stereo not shown) [Compound 41, 2-(2-bromophenyl)-N-((2-(2,6-dioxopiperidin-3-yl)-1-oxoisoindolin-4-yl)methyl)acetamide] had a pEC50 in assay [1] of less than 5.00. Besides, the pIC50 in assay [2] is 5.00 to 6.00.

Molecule `COc1ccc(C(=O)NCc2cccc3c2CN(C2CCC(=O)NC2=O)C3=O)cc1` (stereo not shown) [Compound 25, N-((2-(2,6-dioxopiperidin-3-yl)-1-oxoisoindolin-4-yl)methyl)-4-methoxybenzamide] gave a pEC50 in assay [1] of less than 5.00. Further, the pIC50 in assay [2] is less than 5.00.

Regarding `COc1cccc(C(=O)NCc2cccc3c2CN(C2CCC(=O)NC2=O)C3=O)c1` (stereo not shown) [Compound 1, N-((2-(2,6-dioxopiperidin-3-yl)-1-oxoisoindolin-4-yl)methyl)-3-methoxybenzamide], the pEC50 in assay [1] is greater than 6.00. The negative-log IC50 (pIC50) in assay [2] was 5.00 to 6.00.

As for `Cc1ccc(C(=O)NCc2cccc3c2CN(C2CCC(=O)NC2=O)C3=O)cc1` (stereo not shown) [Compound 11, N-((2-(2,6-dioxopiperidin-3-yl)-1-oxoisoindolin-4-yl)methyl)-4-methylbenzamide], the pEC50 in assay [1] was 5.00 to 6.00.

The molecule `O=C1CCC(N2Cc3c(CNC(=O)c4ccc(C(F)(F)F)cc4)cccc3C2=O)C(=O)N1` (stereo not shown) [Compound 13, N-((2-(2,6-dioxopiperidin-3-yl)-1-oxoisoindolin-4-yl)methyl)-4-(trifluoromethyl)benzamide] had a pEC50 in assay [1] greater than 6.00. The pIC50 in assay [2] is 5.00 to 6.00.

Regarding `O=C1CCC(N2Cc3c(CNC(=O)c4ccc(F)c(Cl)c4)cccc3C2=O)C(=O)N1` (stereo not shown) [Compound 15, 3-chloro-N-((2-(2,6-dioxopiperidin-3-yl)-1-oxoisoindolin-4-yl)methyl)-4-fluorobenzamide], the pEC50 in assay [1] is greater than 6.00. The pIC50 in assay [2] is greater than 6.00.

In turn, `O=C1CCC(N2Cc3c(CNC(=O)c4ccc(Cl)cc4)cccc3C2=O)C(=O)N1` (stereo not shown) [Compound 5, 4-chloro-N-((2-(2,6-dioxopiperidin-3-yl)-1-oxoisoindolin-4-yl)methyl)benzamide] had a negative-log EC50 (pEC50) in assay [1] greater than 6.00. Moreover, the negative-log IC50 (pIC50) in assay [2] was 5.00 to 6.00.

Molecule `O=C1CCC(N2Cc3c(CNC(=O)c4ccc(Cl)c(F)c4)cccc3C2=O)C(=O)N1` (stereo not shown) [Compound 19, 4-chloro-N-((2-(2,6-dioxopiperidin-3-yl)-1-oxoisoindolin-4-yl)methyl)-3-fluorobenzamide] gave a pEC50 in assay [1] greater than 6.00. The pIC50 in assay [2] was 5.00 to 6.00.

For the molecule `O=C(Cc1ccc(O)cc1)NCc1cccc2c1CN(C1CCC(=O)NC1=O)C2=O` (stereo not shown) [Compound 40, N-((2-(2,6-dioxopiperidin-3-yl)-1-oxoisoindolin-4-yl)methyl)-2-(4-hydroxyphenyl)acetamide], in assay [1], the pEC50 was greater than 6.00. In addition, the pIC50 in assay [2] is greater than 6.00.

For `O=C1CCC(N2Cc3c(CNC(=O)c4ccccc4F)cccc3C2=O)C(=O)N1` (stereo not shown) [Compound 31, N-((2-(2,6-dioxopiperidin-3-yl)-1-oxoisoindolin-4-yl)methyl)-2-fluorobenzamide], the pEC50 in assay [1] was less than 5.00. For the same molecule, in assay [2], the pIC50 is 5.00 to 6.00.

`O=C1CCC(N2Cc3c(CNC(=O)c4cccc5cc[nH]c45)cccc3C2=O)C(=O)N1` (stereo not shown) [Compound 38, N-((2-(2,6-dioxopiperidin-3-yl)-1-oxoisoindolin-4-yl)methyl)-1H-indole-7-carboxamide] had a pEC50 in assay [1] greater than 6.00. Moreover, the pIC50 in assay [2] is greater than 6.00.

The molecule `O=C1CCC(N2Cc3c(CNC(=O)c4cccc5[nH]ccc45)cccc3C2=O)C(=O)N1` (stereo not shown) [Compound 39, N-((2-(2,6-dioxopiperidin-3-yl)-1-oxoisoindolin-4-yl)methyl)-1H-indole-4-carboxamide] had a pEC50 in assay [1] of less than 5.00. Moreover, the pIC50 in assay [2] was greater than 6.00.

In assay [1], `O=C1CCC(N2Cc3c(CNC(=O)c4ccc(F)cc4Cl)cccc3C2=O)C(=O)N1` (stereo not shown) [Compound 17, 2-chloro-N-((2-(2,6-dioxopiperidin-3-yl)-1-oxoisoindolin-4-yl)methyl)-4-fluorobenzamide] showed a pEC50 greater than 6.00. The pIC50 in assay [2] is 5.00 to 6.00.

The molecule `O=C1CCC(N2Cc3c(CNC(=O)c4ccncc4)cccc3C2=O)C(=O)N1` (stereo not shown) [Compound 6, N-((2-(2,6-dioxopiperidin-3-yl)-1-oxoisoindolin-4-yl)methyl)isonicotinamide] had a pEC50 in assay [1] of less than 5.00.

`Cc1ccc(F)cc1C(=O)NCc1cccc2c1CN(C1CCC(=O)NC1=O)C2=O` (stereo not shown) [Compound 32, N-((2-(2,6-dioxopiperidin-3-yl)-1-oxoisoindolin-4-yl)methyl)-5-fluoro-2-methylbenzamide] had a pEC50 in assay [1] of less than 5.00. Further, in assay [2], the pIC50 is 5.00 to 6.00.

Molecule `O=C1CCC(N2Cc3c(CNC(=O)c4ccc(Cl)c(Cl)c4)cccc3C2=O)C(=O)N1` (stereo not shown) [Compound 14, 3,4-dichloro-N-((2-(2,6-dioxopiperidin-3-yl)-1-oxoisoindolin-4-yl)methyl)benzamide] had a pEC50 in assay [1] greater than 6.00.

As to `O=C1CCC(N2Cc3c(CNC(=O)c4ccc(OC(F)(F)F)cc4)cccc3C2=O)C(=O)N1` (stereo not shown) [Compound 34, N-((2-(2,6-dioxopiperidin-3-yl)-1-oxoisoindolin-4-yl)methyl)-4-(trifluoromethoxy)benzamide], the pEC50 in assay [1] was greater than 6.00. In assay [2], the pIC50 was 5.00 to 6.00.

For the molecule `O=C1CCC(N2Cc3c(CNC(=O)c4ccco4)cccc3C2=O)C(=O)N1` (stereo not shown) [Compound 2, N-((2-(2,6-dioxopiperidin-3-yl)-1-oxoisoindolin-4-yl)methyl)furan-2-carboxamide], the pEC50 in assay [1] was less than 5.00.

Regarding `O=C1CCC(N2Cc3c(CNC(=O)c4cccnc4)cccc3C2=O)C(=O)N1` (stereo not shown) [Compound 8, N-((2-(2,6-dioxopiperidin-3-yl)-1-oxoisoindolin-4-yl)methyl)nicotinamide], in assay [1], the pEC50 is less than 5.00.

`O=C1CCC(N2Cc3c(CNC(=O)c4ccccc4)cccc3C2=O)C(=O)N1` (stereo not shown) [Compound 10, N-((2-(2,6-dioxopiperidin-3-yl)-1-oxoisoindolin-4-yl)methyl)benzamide] showed a pEC50 in assay [1] of 5.00 to 6.00.

In assay [1], `O=C1CCC(N2Cc3c(CNC(=O)c4ccc(Cl)c(C(F)(F)F)c4)cccc3C2=O)C(=O)N1` (stereo not shown) [Compound 21, 4-chloro-N-((2-(2,6-dioxopiperidin-3-yl)-1-oxoisoindolin-4-yl)methyl)-3-(trifluoromethyl)benzamide] had a pEC50 greater than 6.00.
